# Measurements reported in ChEMBL document CHEMBL3507680, “University of Dundee, Gates Library screen for HepG2 cell viability”.
# Experiment: Human HepG2 cell viability assay in 384 well format
# Format: toxicity, cell-based
# Design: dose 125 nL, time 70.5 hour; concentration not given beside the values
# Details: HepG2 cells, read-out: Inhibition
smiles,measurement,value
O=C1NCC2=C1C(c1ccccc1)Nc1ccccc1N2 (configuration not stated),cytotoxicity at 70.5 h,-2.81%
O=C(O)Cn1ccc(=O)c2cc(Cl)ccc21,cytotoxicity at 70.5 h,-16.7%
O=C(O)Cn1ccc(=O)c2ccccc21,cytotoxicity at 70.5 h,-14.9%
Nc1cccnc1N1CCC(c2ccccc2)CC1,cytotoxicity at 70.5 h,25%
COC(=O)CCn1ccc(=O)c2cc(F)ccc21,cytotoxicity at 70.5 h,-8.87%
CC(C)NC(=O)CN1CCCNCC1,cytotoxicity at 70.5 h,-0.253%
COCCn1ccc2ccc(C(=O)O)cc21,cytotoxicity at 70.5 h,-9.99%
CC(C)CCc1n[nH]c(C(=O)O)c1Cl,cytotoxicity at 70.5 h,16.9%
Nc1nc2c(c3c1C(=O)NC3=O)CCC2,cytotoxicity at 70.5 h,-14.7%
O=C1NCCCc2c1oc1ccc(O)c(CN3CCOCC3)c21,cytotoxicity at 70.5 h,30.3%
NC(=O)CN1CC[C@@]2(O)CCCC[C@H]2[C@@H]1c1ccc2c(c1)OCO2,cytotoxicity at 70.5 h,-2.64%
COc1ccc(C(=O)N2CC[C@@]3(O)CCCC[C@H]3C2)cc1OC,cytotoxicity at 70.5 h,5.36%
O=C(Cn1ccc2cc(Br)ccc21)NC[C@@H]1CCCN2CCCC[C@H]12,cytotoxicity at 70.5 h,9.59%
COC(=O)CNC(=O)Cn1ccc2cccc(OC)c21,cytotoxicity at 70.5 h,7.12%
CCC(C)N1C(=O)c2ccc(C(=O)NCCc3c[nH]cn3)cc2C1=O (configuration not stated),cytotoxicity at 70.5 h,-2.09%
COc1cccc2ccn(CC(=O)NCC(C)C)c12,cytotoxicity at 70.5 h,11.2%
CC(=O)c1cn(CC(=O)N[C@H](C(=O)O)C(C)C)c2ccccc12,cytotoxicity at 70.5 h,-13.5%
CSCC[C@H](NC(=O)Cn1ccc2ccc(Cl)cc21)C(=O)O,cytotoxicity at 70.5 h,-16.7%
CC(=O)c1cn(CCC(=O)N[C@@H](CC(C)C)C(=O)O)c2ccccc12,cytotoxicity at 70.5 h,-7.76%
O=C1CC(c2ccc(O)cc2)c2c(c(C(=O)O)cn2-c2ccccc2)N1 (configuration not stated),cytotoxicity at 70.5 h,-10.6%
COc1cccc(-c2nc(C)c(C(=O)N[C@@H](CCSC)C(=O)O)s2)c1,cytotoxicity at 70.5 h,-21.7%
CC(C)CNC(=O)c1cn(C)c(=O)c2ccccc12,cytotoxicity at 70.5 h,7.18%
Cn1c(C(=O)N2CC[C@@]3(O)CCCC[C@H]3C2)cc2ccccc21,cytotoxicity at 70.5 h,-3.98%
Cn1ccc2ccc(C(=O)N3CC[C@@]4(O)CCCC[C@H]4C3)cc21,cytotoxicity at 70.5 h,7.95%
Cn1ccc2cc(C(=O)N3CC[C@@]4(O)CCCC[C@H]4C3)ccc21,cytotoxicity at 70.5 h,-13.9%
Cn1ccc2ccc(C(=O)NC3CCOC(C)(C)C3)cc21 (configuration not stated),cytotoxicity at 70.5 h,8.55%
Cc1nn(-c2ncnc3[nH]cnc23)c2c1C(C(C)C)CC(=O)N2 (configuration not stated),cytotoxicity at 70.5 h,-1.6%
COc1cc2nc(C)n(CC(=O)NCCO)c(=O)c2cc1OC,cytotoxicity at 70.5 h,-8.13%
Cn1c(CN2CCCCC2)cc(=O)c(O)c1CN1CCCCC1,cytotoxicity at 70.5 h,2.14%
COc1ccc(NC(=O)CCNc2ncccn2)cn1,cytotoxicity at 70.5 h,-30.9%
O=C(CC(F)(F)F)N1CCc2[nH]nc(-c3ccc4c(c3)OCO4)c2C1,cytotoxicity at 70.5 h,7.4%
CN1CCC(Oc2ccc(-n3ccnc3-c3ccncc3)cc2)CC1,cytotoxicity at 70.5 h,-13.2%
O=S(=O)(c1c(N2CCCCC2)ccc2nonc12)N1CCCCC1,cytotoxicity at 70.5 h,-8.4%
Cc1ccc(C(=O)NCCC(C)C)cc1NS(C)(=O)=O,cytotoxicity at 70.5 h,-10%
CN(C)Cc1nnc(C2CCCN(c3ncccc3F)C2)n1C (configuration not stated),cytotoxicity at 70.5 h,24.4%
Cc1cc(C)c2nc(CN[C@H]3CCCNC3)cc(O)c2c1,cytotoxicity at 70.5 h,-2.89%
CC(=O)Nc1ncc(S(=O)(=O)N2CCC(C)CC2)s1,cytotoxicity at 70.5 h,-8.58%
COc1cc(-c2cnnc(NCCCOC(C)C)n2)cc(OC)c1OC,cytotoxicity at 70.5 h,6.95%
Cc1ccnc(NC(=O)C(C)Cn2cncn2)c1 (configuration not stated),cytotoxicity at 70.5 h,13.8%
COCCNc1nc2c(c(NCC3CCOC3)n1)CCNCC2 (configuration not stated),cytotoxicity at 70.5 h,-0.779%
CCC[C@H]1CN(Cc2cc(C#N)n(C)c2C)C[C@@H]1NS(=O)(=O)CC,cytotoxicity at 70.5 h,-6.14%
CCc1cc(C(=O)N2CC[C@@H](c3ccc4c(c3)OCO4)[C@H](O)C2)ccn1,cytotoxicity at 70.5 h,16.7%
COc1ccc(C(=O)n2nc(C)c(C)c2C)cc1,cytotoxicity at 70.5 h,-2.07%
Cc1cccc2c1nc(COCC(=O)O)n2-c1ccsc1,cytotoxicity at 70.5 h,-4.32%
O=C(C1CCOC1)N1CCN(Cc2ccc3c(c2)CCO3)CC1 (configuration not stated),cytotoxicity at 70.5 h,-9.08%
Cc1nn(C)c(Cl)c1C1CCCN1Cc1nnc(C2CC2)o1 (configuration not stated),cytotoxicity at 70.5 h,-5.62%
COCCc1noc(CN2CCCC2c2c(C)nn(C)c2Cl)n1 (configuration not stated),cytotoxicity at 70.5 h,-0.0583%
Cc1ccc(CN(C)C(=O)c2ccc(NC3CC3)nc2)o1,cytotoxicity at 70.5 h,-13.2%
N#Cc1cccc(C(=O)N2CCN(c3ncccn3)CC2)c1,cytotoxicity at 70.5 h,14.3%
Cc1nccc(-c2cccc(NCC(=O)N3CCOCC3)c2)n1,cytotoxicity at 70.5 h,-4.16%
Cc1nc(C(C)C)sc1C(=O)NCCNc1ncccn1,cytotoxicity at 70.5 h,-10.9%
Cc1noc(NC(=O)c2cccc(Br)c2)n1,cytotoxicity at 70.5 h,-0.644%
Cc1noc(NC(=O)CCNC(=O)c2ccc(Br)cc2)n1,cytotoxicity at 70.5 h,14.6%
Cc1ccc(C(=O)Nc2nc(C)no2)cc1,cytotoxicity at 70.5 h,-4.79%
Cc1noc(NC(=O)c2ccc(F)cc2)n1,cytotoxicity at 70.5 h,-3.99%
CCCc1nc(C)c(C(=O)NCCNc2ncccn2)s1,cytotoxicity at 70.5 h,-6.59%
O=C(NCCn1cccn1)c1ccn(-c2cccc(F)c2)n1,cytotoxicity at 70.5 h,-11.4%
COc1ccc(-n2ccc(C(=O)NCCn3ccnc3)n2)cc1,cytotoxicity at 70.5 h,-8.04%
COc1ccc(C(=O)N(C)Cc2c(C)noc2C)cn1,cytotoxicity at 70.5 h,-4.2%
Cc1nc(C)c(C(=O)NCCNc2ncccn2)s1,cytotoxicity at 70.5 h,-5.75%
Cc1cc(C)c(CNC(=O)NCC(O)c2ccccc2F)c(=O)[nH]1 (configuration not stated),cytotoxicity at 70.5 h,-2.12%
Cc1cc(C)c(CNC(=O)N(C)Cc2cccc(F)c2)c(=O)[nH]1,cytotoxicity at 70.5 h,0.933%
Cc1noc(C)c1CN(C)C(=O)c1ccc(O)nc1,cytotoxicity at 70.5 h,-5.72%
COc1ccc(CNC(=O)NC(C)(C(=O)O)c2ccco2)cc1F (configuration not stated),cytotoxicity at 70.5 h,16.9%
CC(NC(=O)NCc1cccc(F)c1)(C(=O)O)c1ccco1 (configuration not stated),cytotoxicity at 70.5 h,-8.22%
COc1ccc(C(O)CNC(=O)NCc2c(C)cc(C)[nH]c2=O)cc1 (configuration not stated),cytotoxicity at 70.5 h,-5.03%
CCOc1ccnc(N2CCN(C(=O)c3ccc(OC)cc3)CC2)n1,cytotoxicity at 70.5 h,-12.5%
CCc1nnsc1C(=O)N1CCCC(n2ccnc2C(C)C)C1 (configuration not stated),cytotoxicity at 70.5 h,-5.12%
Cc1ccc(CC(=O)N2CCCC(n3ccnc3C(C)C)C2)cn1 (configuration not stated),cytotoxicity at 70.5 h,-7.44%
Cc1cc(CN2CCCC2c2c(C)nn(C)c2Cl)on1 (configuration not stated),cytotoxicity at 70.5 h,0.0053%
CC(NC(=O)NCc1ccccc1F)(C(=O)O)c1ccco1 (configuration not stated),cytotoxicity at 70.5 h,-2.87%
CC(NC(=O)CSCC#N)c1ccc(F)cc1 (configuration not stated),cytotoxicity at 70.5 h,10.1%
Cc1nccn1-c1cc(CNC(=O)CC2CCCO2)ccn1 (configuration not stated),cytotoxicity at 70.5 h,16.3%
O=C(NCc1ccccc1Cn1cncn1)C1CCCC1,cytotoxicity at 70.5 h,-3.85%
CN(Cc1cccc(O)c1)C(=O)Nc1cccnc1N1CCCC1,cytotoxicity at 70.5 h,16.2%
CC(NC(=O)CSCC#N)c1ccc(Cl)cc1 (configuration not stated),cytotoxicity at 70.5 h,-4.42%
Cc1ccoc1C(=O)NC1CCN(CC(=O)N(C)c2ccccc2)CC1,cytotoxicity at 70.5 h,18%
Cc1ccc(C(=O)NC2CCN(CC(=O)N(C)c3ccccc3)CC2)o1,cytotoxicity at 70.5 h,-4.99%
CN(C(=O)CN1CCC(NC(=O)c2cccs2)CC1)c1ccccc1,cytotoxicity at 70.5 h,-6.85%
Cc1cccc(OCCN2CCC(c3ccnn3CCO)CC2)c1,cytotoxicity at 70.5 h,-7.3%
OCCn1nccc1C1CCN(CCOc2ccccc2)CC1,cytotoxicity at 70.5 h,8.03%
CCc1nc(C(=O)N2CCCCC2)nn1-c1ccccc1Cl,cytotoxicity at 70.5 h,-6.89%
COc1c(CNCc2ccc3c(c2)OCO3)c(C(C)C)nn1C,cytotoxicity at 70.5 h,18.3%
CC(C)c1nn(C)c(N2CCOCC2)c1CNC(C)c1ccco1 (configuration not stated),cytotoxicity at 70.5 h,-2.73%
CC(C)c1nn(C)c(N(C)C)c1CNCc1ccc(CO)c(F)c1,cytotoxicity at 70.5 h,1.57%
Cc1nccn1-c1cc(CNC(=O)CCS(=O)(=O)C2CCCC2)ccn1,cytotoxicity at 70.5 h,10.7%
CN(C)c1ccc(C(=O)N2CCCC(n3cccn3)C2)nn1 (configuration not stated),cytotoxicity at 70.5 h,-4.36%
CCc1nc(C(=O)N2CCOCC2)nn1-c1ccccc1Cl,cytotoxicity at 70.5 h,-3.34%
O=C(c1ccc(N2CCCC2)nn1)N1CCCC(n2ccnc2)C1 (configuration not stated),cytotoxicity at 70.5 h,-5.71%
Cc1nc(C)n(CC2CN(CCOc3cccc(C#N)c3)CCO2)n1 (configuration not stated),cytotoxicity at 70.5 h,-6.4%
Cc1cc(C(=O)N2CCOC(c3nc(C(C)C)n[nH]3)C2)c(C)s1 (configuration not stated),cytotoxicity at 70.5 h,-4.17%
CN(Cc1ccc(F)cc1)C(=O)Nc1cccnc1N1CCCC1,cytotoxicity at 70.5 h,-6.22%
CC(C)c1n[nH]c(C2CN(C(=O)c3ncoc3C(C)C)CCO2)n1 (configuration not stated),cytotoxicity at 70.5 h,-2.71%
CC(Cn1cccn1)NCCCc1nc(-c2cccs2)no1 (configuration not stated),cytotoxicity at 70.5 h,1.95%
CC1CCCCN1CCNC(=O)c1scnc1Cl (configuration not stated),cytotoxicity at 70.5 h,-12.6%
CC(C)c1noc(C(C)N2CCN(Cc3cccnc3)CC2)n1 (configuration not stated),cytotoxicity at 70.5 h,-5.62%
CCC(O)CN1CCN(C(=O)c2cnc3n[nH]c(C)c3c2)CC1 (configuration not stated),cytotoxicity at 70.5 h,-7.48%
Cc1nc(C)n(CC2CN(Cc3ccc4c(c3)OCCO4)CCO2)n1 (configuration not stated),cytotoxicity at 70.5 h,-14.3%
CCn1nc2c(cc1=O)CN(Cc1nc(C)c(C)o1)CC2,cytotoxicity at 70.5 h,-15.3%
Cc1ncc2c(n1)CN(Cc1nc(-c3ccsc3)no1)CC2,cytotoxicity at 70.5 h,-21.5%
CC(c1nc(C(C)(C)C)no1)N1CCN(Cc2ccco2)CC1 (configuration not stated),cytotoxicity at 70.5 h,-15%
Cc1cnc2c(S(=O)(=O)NCC3CC3)cccc2c1,cytotoxicity at 70.5 h,-1.56%
O=C(NCc1ccc(Cl)s1)NCc1nnc2n1CCCCC2,cytotoxicity at 70.5 h,-14.9%
CC1CCN(CCNC(=O)c2scnc2Cl)CC1,cytotoxicity at 70.5 h,18.5%
COc1ccnc(N2CCN(CC(=O)N3CCC(C)CC3)CC2)n1,cytotoxicity at 70.5 h,-13.2%
COCCN(CCOC)C(=O)Nc1cc(C(F)(F)F)c[nH]c1=O,cytotoxicity at 70.5 h,-15.1%
COc1ccnc(N2CCN(CC(=O)N3CCOC(C)C3)CC2)n1 (configuration not stated),cytotoxicity at 70.5 h,-8.38%
Cc1nc2ccnn2c(C)c1CCC(=O)N1CCN2CCCCC2C1 (configuration not stated),cytotoxicity at 70.5 h,-9.21%
Cc1cc(C)n(C2CCCN(C(=O)c3csc(C4CC4)n3)C2)n1 (configuration not stated),cytotoxicity at 70.5 h,-11%
CC(=O)Nc1nc(C(=O)N2CCCC(n3ccnc3C)C2)cs1 (configuration not stated),cytotoxicity at 70.5 h,-14.1%
CCc1ncc2c(n1)CN(Cc1nc(-c3cccnc3)no1)CC2,cytotoxicity at 70.5 h,-6.75%
CC(C)n1nc2c(cc1=O)CN(Cc1nc3ccccc3o1)CC2,cytotoxicity at 70.5 h,10.1%
O=C(c1cc[nH]n1)N1CCCC(c2cc(C(F)(F)F)[nH]n2)C1 (configuration not stated),cytotoxicity at 70.5 h,-17.8%
O=C(c1ccco1)N1CCCC(c2cc(C(F)(F)F)[nH]n2)C1 (configuration not stated),cytotoxicity at 70.5 h,-7.38%
Cc1cc(C2CCCN(C(=O)c3ccc(Cl)o3)C2)n[nH]1 (configuration not stated),cytotoxicity at 70.5 h,-8.12%
Cn1ccnc1Sc1ccc(N)cn1,cytotoxicity at 70.5 h,0.97%
CC(C)c1nn(C)c(N(C)C)c1CNC(C)c1ccc2c(c1)OCO2 (configuration not stated),cytotoxicity at 70.5 h,20%
